In patent US12458688B2, “Epitopes” (Scancell Limited, priority 2018, dated 2025):
Where no end group is shown, it is not given here. [ ]: non-standard residue; d: D form. hCit = NC(=O)NCCCC[C@H](N)C(=O)O

Tests used:
B16F1 HHDII/DR1 tumours = experiment: Tumour therapy, B16F1 HHDII/DR1 tumour in HHDII/DR1 mice; format: in vivo, mouse; details: peptide with CpG/MPLA days 4, 11, 18
From the text: (§1) To determine if the epitopes that stimulate T cell responses are presented on MHC-II within the tumour environment, our homocitrullinated peptides were checked for tumour therapy in B16 tumour models. Mice were implanted with tumour cells on day 1 and then immunised with peptides and CpG/MPLA on days 4, 11 and 18.
HHDII/DR1 (FIG. 19a) or DR4 (FIG. 19b) transgenic mice were challenged with B16F1 HHDII/DR1 or B16F1 DR4 tumours respectively prior to immunisation with vimentin 116-135Hcit peptide and tumour growth and survival were monitored.
HHDII/DR1 mice were implanted with B16HHDII/DR1 tumour cells on day 1 and then immunised with Cyk8 371Hcit, 112hcit or both peptides and CpG/MPLA on days 4, 11 and 18.

[1] = system: PBMCs from cancer patients; experiment: CFSE proliferation assay, CD25-depleted PBMCs of cancer patients; format: cell-based, human; details: 10 μg/ml peptide, day 10, vs media control
Procedure: Peripheral blood samples were drawn into lithium heparin tubes (Becton Dickinson) and processed immediately following venepuncture. PBMCs were isolated by density gradient centrifugation using Ficoll-Hypaque. Proliferation and cultured ELISpot assay of PBMCs were performed immediately after isolation. For CD25 depletion PBMCs were processed as above and […] using anti-CD25 microbeads and MACS Cell Separation Columns (Miltenyi).
Briefly, a 50 μM stock solution in warm PBS was prepared from a master solution of 5 mM in dimethyl sulfoxide (DMSO). CFSE was rapidly added to PBMCs (5×10^6 cells/ml loading buffer (PBS with 5% v/v heat inactivated FCS)) to achieve a final concentration of 5 μM. PBMCs were incubated at room temperature in the dark for 5 mins after which non-cellular incorporated CFSE was removed by washing twice with excess (×10 v/v volumes) of loading buffer (300g ×10 mins). […]
On day 10, 500 μl of cells were removed from culture, washed in PBS and stained with 1:50 dilution of anti-CD4 (PE-Cy5, clone RPA-T4, ThermoFisher), anti-CD8 efluor 450, clone RPA-T8, ThermoFisher) and anti-CD134 (PE-Cy7, Clone REA621, Miltenyi). […] Stained samples were analysed immediately on a MACSQuant 10 flow cytometer equipped with MACSQuant software version 2.8.168.16380. […]

[2] = system: splenocytes from immunised mice; experiment: Ex vivo IL-17 ELISpot after peptide immunisation; details: mouse, in vivo
Procedure: (§2) C57BL/6 mice (Charles River, UK), HLA-DR4 mice (Model #4149, Taconic, USA), HLA-A2/DR1 (HHDII/DR1, Pasteur Institute), HLA-A2.1+/+HLA-DP4+/+hCD4+/+ (HLA-HHDII/DP4) transgenic mice (EM: 02221, European Mouse Mutant Archive) described in patent WO2013/017545 A1 (EMMA repository, France) were used, aged between 8 and 12 weeks. Peptides were dissolved in PBS to 1 mg/ml and then emulsified (a series of dilutions) with CpG ODN 1826 and MPLA 6 μg/mouse of each (Invivogen, UK). Peptides (25 μg/mouse) were injected subcutaneously at the base of the tail. Mice were immunised at days 1, 7 and 14 for peptide immunisation. Spleens were removed for analysis at day 21 unless stated otherwise.
ELISpot assays were performed using murine IFNγ, IL-17 and IL-10 capture and detection reagents according to the manufacturer's instructions (Mabtech, Sweden). In brief, anti-IFNγ, IL-17 and IL-10 specific antibodies were coated onto wells of 96-well Immobilin-P plate. […] After incubation, captured IFNγ, IL-10 and IL-17 were detected by biotinylated anti-IFNγ, IL-10 and IL-17 antibodies and developed with a streptavidin alkaline phosphatase and chromogenic substrate. […] Spots were analysed and counted using an automated plate reader (Cellular Technologies Ltd).

HLA-DR4 mice = experiment: Ex vivo IFNγ ELISpot after peptide immunisation, HLA-DR4 mice; format: in vivo, mouse; details: for IFNγ ELISpot response: 3 immunisations with CpG/MPLA, day 21
Procedure: as §2
ELISpot assays were performed using murine IFNγ, IL-17 and IL-10 capture and detection reagents according to the manufacturer's instructions (Mabtech, Sweden). In brief, anti-IFNγ, IL-17 and IL-10 specific antibodies were coated onto wells of 96-well Immobilin-P plate. Synthetic peptides (at various concentrations) and 5×10^5 per well splenocytes were added to wells of the plate in quadruplicate Tumour target cells were added where relevant at 5×10^4/well in triplicate and plates incubated for 40 hrs at 37° C. After incubation, captured IFNγ, IL-10 and IL-17 were detected by biotinylated anti-IFNγ, IL-10 and IL-17 antibodies and developed with a streptavidin alkaline phosphatase and chromogenic substrate. Lipopolysaccharide (LPS; 5 μg/ml) was used as a positive control. For MHC blocking studies, anti-CD4 blocking antibody (GK1.5) or anti-CD4 blocking antibody (RPA-T4) for HHDII/DP4 mice which express human CD4 and anti-CD8 blocking antibody (2.43) from Bioxcell were used at 20 μg/ml. Spots were analysed and counted using an automated plate reader (Cellular Technologies Ltd).
Screening was performed to identify potential homocitrullinated vimentin epitopes in mice. Mice were immunised with pools of homocitrullinated peptides. […] Each pool was administered as three immunisations containing 20 μg of each peptide and CpG/MPLA as an adjuvant on day 1, 8 and 15. On day 21 the mice were culled and the immune responses to each peptide within the immunising pool were assessed by ex vivo ELISpot. Given that different mouse strains have different MHC repertoires a number of strains were used for screening. Peptide responses were assessed in transgenic strains expressing human DR4 or HHDII/DR1 in a C57BL/6 background (see methods).

[3] = system: IFNγ-inducible B16 DR4 tumour; experiment: Tumour therapy, IFNγ-inducible B16 DR4 tumour in HLA-DR4 mice; format: in vivo, mouse; details: peptide with CpG/MPLA
From the text: To mimic the naturally occurring tumour, we engineered B16F1 cells to express HLA-DR4 under control of mouse IFNγ-inducible promoter. […] HLA-DR4 mice were then implanted with this IFNγ-inducible B16 DR4 tumour followed by immunisation with vimentin 116-135Hcit peptide (FIG. 19e).

[4] = system: B16 HHDII/DP4 tumour cells; experiment: Tumour therapy, B16 HHDII/DP4 tumour in HHDII/DP4 mice; format: in vivo, mouse; details: peptide with CpG/MPLA days 4, 11, 18
From the text: as §1
HHDII/DP4 mice were challenged with B16 HHDII/DP4 tumour cells and then immunised with ALDOA homocitrulline peptides (FIG. 19c).
Next, we aimed to determine if these cell populations play a role in carbamylation in the tumour microenvironment and are therefore necessary for the anti-tumour effect. HHDII/DP4 mice were implanted with tumour and then immunised with ALDOA homocitrulline peptides. Mice where then either untreated or treated with Ly6G or Ly6C depletion antibodies to remove either the neutrophils/G-MDSCs or monocytes/M-MDSCs, respectively Peptide vaccination was associated with 100% survival whereas peptide and Ly6G+antibody was associated with a slight but significant reduction in the anti-tumour effect (80% survival, p=0.04) (FIG. 23a).
Next, antibodies were used to deplete the Ly6C+ population (FIG. 23b). Ly6C depletion alone increased survival when compared to control (20% survival, p=0.0012). For this study vaccination alone gave 80% survival (p<0.0001).

Substance | CD4 T cell proliferation [1] | IFNγ ELISpot response (HLA-DR4 mice) | anti-tumour response / survival vs control (B16F1 HHDII/DR1 tumours) | survival [4] [%] | also measured
NYID-Hcit-VRFLEQQN-Hcit-ILLAEL (NYID[hCit]VRFLEQQN[hCit]ILLAEL) [Vimentin 116-135 Hcit] | just short of significance | significant response |  |  | survival (B16F1 HHDII/DR1 tumours): 50%; IL-17 ELISpot response [2]: no production; IFNγ response in presence of CD4 blocking antibody (HLA-DR4 mice): significantly decreased; IFNγ response in presence of CD8 blocking antibody (HLA-DR4 mice): not in the presence of the CD8 blocking antibody; cross reactivity of Hcit response to wt peptide (HLA-DR4 mice): no cross reactivity; survival [3]: 40%
LEQQN-hcit-MLET-hcit-WSLLQQQ-hcit-T (LEQQN[hCit]MLET[hCit]WSLLQQQ[hCit]T) [Cyk8 112-131 Hcit] |  |  | Significant prevention of tumour growth |  | 
LREYQELMNV-hcit-LALDIEI (LREYQELMNV[hCit]LALDIEI) [Cyk8 371-388 Hcit] |  |  | Significant prevention of tumour growth |  | 
IGGVILFHETLYQ-hcit-ADDGRP (IGGVILFHETLYQ[hCit]ADDGRP) [Aldolase A 74-93 Hcit] | significant proliferative responses | No responses were seen |  | 90 | 
hcit-DGADFA-hcit-WRCVL-hcit-IGEH ([hCit]DGADFA[hCit]WRCVL[hCit]IGEH) [Aldolase A 140-157 Hcit] |  | No responses were seen | significant increase in survival | 60 | 
